One data set has as its system renal cancer cell lines. In words: NCI-60 screen, renal cell lines. Format: cell-based, human. Particulars: NCI-60 preliminary screening; for inhibition at 10 µM: Homo sapiens, read-out: Percent (%) Inhibition of Cancer Cell Line, Renal Cell. As to the method: (§1) Screening for Anticancer Activity—The NCI-60 panel: Representative compounds of the invention were subjected to anticancer testing in the National Cancer Institute (NCI) 60 screen. In this screen compounds are tested on a panel of sixty human cancer cell lines chosen from the following cancers: leukemia, nonsmall cell lung cancer (NSCLC), colon, melanoma, central nervous system (CNS), ovarian, renal, prostate and breast. The assay method is found on the NCI website (dtp.cancer.gov/discovery_development/nci-60/methodology.htm). In the NCI-60 assay, test compounds undergo preliminary screening at 10 μM concentration. The data is reported as percent growth relative to “no drug” control; therefore values between 0 and 100% denote growth inhibition.

The target of data set [1] is sphingosine-1-phosphate receptor 1 (S1PR1) (Homo sapiens, UniProt P21453). In words: Radioligand binding to sphingosine-1-phosphate receptor 1. To be noted: test compound 100 nM, 0.2 nM radioligand; read-out: % INHIBITION of binding to the SIP1 Receptor. As to the method: The binding of a representative group of compounds of this invention to sphingosine-1-phosphate receptor 1 (S1PR1) was determined by a published procedure (Rosenberg et al., 2016). In this assay, the test compound at 100 nM concentration was incubated with 0.2 nM radioligand. Active compounds or “hits” are defined as compounds that inhibit radioligand binding by 50% or more. […] This finding is significant because it establishes the 3′,4′-dihydro-2′H-[…]-2-one hybrid scaffold as an entirely new class of ligands for the sphingosine-1-phosphate receptors.
Chain of sphingosine-1-phosphate receptor 1 (S1PR1) (P21453 whole entry, species assumed): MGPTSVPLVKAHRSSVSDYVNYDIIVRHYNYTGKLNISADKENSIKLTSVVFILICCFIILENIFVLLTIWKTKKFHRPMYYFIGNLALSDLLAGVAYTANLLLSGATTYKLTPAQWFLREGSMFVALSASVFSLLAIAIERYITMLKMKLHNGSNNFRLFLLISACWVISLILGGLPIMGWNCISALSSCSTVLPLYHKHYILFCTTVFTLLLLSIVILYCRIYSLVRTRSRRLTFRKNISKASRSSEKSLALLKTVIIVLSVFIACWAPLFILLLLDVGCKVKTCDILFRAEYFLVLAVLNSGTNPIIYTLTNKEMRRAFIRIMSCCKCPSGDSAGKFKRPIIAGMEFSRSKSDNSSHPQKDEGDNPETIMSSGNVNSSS

The test system of data set [2] is nonsmall cell lung cancer (NSCLC) cell lines. Nature of the data set: NCI-60 screen, NSCLC cell lines. Format: cell-based, human. Particulars: NCI-60 preliminary screening; for inhibition at 10 µM: Homo sapiens, read-out: Percent (%) Inhibition of Cancer Cell Line, NSCLC. As to the method:
as §1

Data set [3] concerns ovarian cancer cell lines. In words: NCI-60 screen, ovarian cell lines. Format: cell-based, human. Particulars: NCI-60 preliminary screening; for inhibition at 10 µM: Homo sapiens, read-out: Percent (%) Inhibition of Cancer Cell Line, Ovarian. How it is done: as §1
The test system of a further data set is leukemia cell lines. In words: NCI-60 screen, leukemia cell lines. Format: cell-based. To be noted: Homo sapiens, NCI-60 preliminary screening, read-out: Percent (%) Inhibition of Cancer Cell Line, Leukemia. How it is done:
as §1

In a further data set the test system is breast cancer cell lines. In words: NCI-60 screen, breast cell lines. Particulars: NCI-60 preliminary screening; for inhibition at 10 µM: Homo sapiens, read-out: Percent (%) Inhibition of Cancer Cell Line, Breast. Format: cell-based, human. How it is done: as §1
Data set [4] deals with prostate cancer cell lines. In words: NCI-60 screen, prostate cell lines. The data set is classed as cell-based, human. Particulars: NCI-60 preliminary screening; for inhibition at 10 µM: Homo sapiens, Prostate cell, read-out: Percent (%) Inhibition of Cancer Cell Line, Prostate. How it is done:
as §1

In data set [5] the test system is panel of sixty human cancer cell lines. Nature of the data set: NCI-60 screen, whole panel. The data set is classed as cell-based. To be noted: 10 μM. As to the method: as §1
Another data set relates to melanoma cell lines. In words: NCI-60 screen, melanoma cell lines. The data set is classed as cell-based. Particulars: Homo sapiens, NCI-60 preliminary screening, read-out: Percent (%) Inhibition of Cancer Cell Line, Melanoma. How it is done: as §1
Data set [6] deals with EMT6 breast cancer cell line. In words: Antiproliferative screening on EMT6 cancer cells. Format: cell-based. To be noted: for activity at 100 µM: Mus musculus, EMT6, no ligand = 100, read-out: EMT6 cell proliferation (%). How it is done: Representative compounds were screened tested for antiproliferative activity on the EMT6 breast cancer cell line. Screening was carried out according to published procedures (Zeng et al., 2014). In this screen, compounds were tested at 100 μM concentration.

The subject of data set [7] is central nervous system (CNS) cancer cell lines. In words: NCI-60 screen, CNS cell lines. The data set is classed as cell-based. To be noted: Homo sapiens, NCI-60 preliminary screening, read-out: Percent (%) Inhibition of Cancer Cell Line, CNS. As to the method: as §1

Molecules are shown by their SMILES.

For the compound `COc1cc2c(c(OC)c1OC)C1(NCC2)C(=O)Nc2ccc(Cl)cc21` (centres unmarked) [Compound 6b, 5-Chloro-6′,7′,8′-trimethoxy-3′,4′-dihydro-2′H-spiro[indoline-3,1′-isoquinolin]-2-one], the inhibition at 10 µM in the data set with renal cancer cell lines was 28 to 31%; in data set [2], 20%; in [3] it was 20%. Moreover, in data set [1], the inhibition at 0.1 µM worked out at 41.1%.
For `COc1cc2c(cc1OC)C1(NCC2)C(=O)N(Cc2ccc(C)cc2)c2ccccc21` (centres unmarked) [Compound 5e, 6′,7′-Dimethoxy-1-(4-methylbenzyl)-3′,4′-dihydro-2′H-spiro[indoline-3,1′-isoquinolin]-2-one], the inhibition at 10 µM was 24 to 48% with leukemia cell lines, 22 to 24% in the data set on breast cancer cell lines, 25% in the data set on renal cancer cell lines and 42% in data set [4]. In data set [1], the inhibition at 0.1 µM was 32.4%. In addition, the “antiproliferative activity in the NCI-60 panel” value (shortened to “antiproliferative activity”) in data set [5] is listed as “most potent analogues”.
`COc1cc2c(cc1OC)C1(NCC2)C(=O)N(Cc2ccc(Br)cc2)c2ccc(Cl)cc21` (centres unmarked) [Compound 5f, 1-(4-Bromobenzyl)-5-chloro-6′,7′-dimethoxy-3′,4′-dihydro-2′H-spiro[indoline-3,1′-isoquinolin]-2-one]: the inhibition at 10 µM was 38 to 55% in the data set with leukemia cell lines; 27 to 36% in the data set on breast cancer cell lines; 44% with melanoma cell lines; 52% in data set [4]; 39% in [3]. Besides, the “antiproliferative activity” value in data set [5] is reported as “most potent analogues”.
With `O=C1Nc2ccccc2C12NCCc1cccc(O)c12` (centres unmarked) [Compound 1a, 8′-Hydroxy-3′,4′-dihydro-2′H-spiro[indoline-3,1′-isoquinolin]-2-one], the inhibition at 10 µM is 14% with renal cancer cell lines, 15% in data set [2] and 10% in [3]. Also, the activity at 100 µM in data set [6] came out at 104%.
Consider `O=C1N(Cc2ccc(Cl)c(Cl)c2)c2ccccc2C12NCCc1cc(O)ccc12` (centres unmarked) [Compound 2g, 1-(3,4-Dichlorobenzyl)-6′-hydroxy-3′,4′-dihydro-2′H-spiro[indoline-3,1′-isoquinolin]-2-one], for which the inhibition at 10 µM was 19% with leukemia cell lines; 13% with breast cancer cell lines; 22 to 36% in the data set on renal cancer cell lines; 19% in data set [4]; 25% in data set [2]. In addition, the “inhibition of EMT6 cell proliferation” value in data set [6] (100 μM) is “as much as fifty percent”. In [6], the activity at 100 µM was determined as 56.5%.
`O=C1N(Cc2ccc(Cl)c(Cl)c2)c2ccccc2C12NCCc1cccc(O)c12` (centres unmarked) [Compound 1g, 1-(3,4-Dichlorobenzyl)-8′-hydroxy-3′,4′-dihydro-2′H-spiro[indoline-3,1′-isoquinolin]-2-one]: the melting point was in the range of 109 to 113 °C. In data set [6], the activity at 100 µM was 91.1%.
As for `COc1cc2c(cc1OC)C1(NCC2)C(=O)Nc2c(Br)cc(Br)cc21` (centres unmarked) [Compound 5c, 5,7-dibromo-6′,7′-dimethoxy-3′,4′-dihydro-2′H-spiro[indoline-3,1′-isoquinolin]-2-one], the inhibition at 10 µM in data set [7] is 25%; in the data set with leukemia cell lines, 24%; in the data set with renal cancer cell lines it was 27 to 35%. The inhibition at 0.1 µM in data set [1] amounted to 37.6%.
For the compound `O=C1N(Cc2ccc(Cl)cc2)c2ccccc2C12NCCc1cccc(O)c12` (centres unmarked) [Compound 1e, 1-(4-Chlorobenzyl)-8′-hydroxy-3′,4°-dihydro-2′H-spiro[indoline-3,1′-isoquinolin]-2-one], the “Percent (%) Inhibition of Cancer Cell Line, Breast” value in the data set with breast cancer cell lines (10 μM) was 12%. In addition, the “Percent (%) Inhibition of Cancer Cell Line, Renal Cell” value in the data set with renal cancer cell lines (10 μM) was determined as 35%. For the same compound, the “EMT6 cell proliferation (%)” value in [6] (100 μM, no ligand = 100) is 77.91%. Further, in [4] (10 μM), the “Percent (%) Inhibition of Cancer Cell Line, Prostate” value came to 14%. The “Percent (%) Inhibition of Cancer Cell Line, NSCLC” value in data set [2] (10 μM) is on record as 30%. For the same compound, the “Percent (%) Inhibition of Cancer Cell Line, Ovarian” value in [3] (10 μM) is on record as 14%.
As for `O=C1N(Cc2ccc(F)cc2)c2ccccc2C12NCCc1cccc(O)c12` (centres unmarked) [Compound 1d, 1-(4-Fluorobenzyl)-8′-hydroxy-3′,4′-dihydro-2H-spiro[indoline-3,1′-isoquinolin]-2-one], the melting point fell in the range of 119 to 121 °C. Also, in [6], the activity at 100 µM was determined as 120%. In addition, the inhibition at 0.1 µM in data set [1] was no less than 50%.
In the case of `COc1ccc2c(c1)CCNC21C(=O)N(Cc2ccc(C)cc2)c2ccccc21` (centres unmarked) [Compound 4e, 6′-Methoxy-1-(4-methylbenzyl)-3′,4′-dihydro-2′H-spiro[indoline-3,1′-isoquinolin]-2-one], the inhibition at 10 µM with breast cancer cell lines is 25 to 30%; with renal cancer cell lines it was 30 to 46%; in [2] it was 25 to 28%. For the same compound, the inhibition at 0.1 µM in data set [1] turned out to be 38.1%. Moreover, the “antiproliferative activity” value in [5] is given as “most potent analogues”.
As for `COc1cc2c(cc1OC)C1(NCC2)C(=O)Nc2ccc(Cl)cc21` (centres unmarked) [Compound 5b, 5-Chloro-6′,7′-dimethoxy-3′,4′-dihydro-2′H-spiro[indoline-3,1′-isoquinolin]-2-one], the figures for the inhibition at 10 µM (in [7]; with renal cancer cell lines) were 32% and 22%, respectively. Moreover, the inhibition at 0.1 µM in data set [1] was no less than 50%.
Take `COc1ccc2c(c1)CCNC21C(=O)Nc2ccccc21` (centres unmarked) [Compound 4a, 6′-Methoxy-3′,4′-dihydro-2′H-spiro[indoline-3,1′-isoquinolin]-2-one]: the inhibition at 10 µM (in data set [7]; in the data set on renal cancer cell lines) was 20% each time. In addition, in data set [1], the inhibition at 0.1 µM came out at 36.2%.

The values above are taken from US20220267329A1, “Dihydro-Spiro[Indoline-3:1'-Isoquinolin]-2-Ones and Their Analogues and Derivatives and Methods of Treating Cancer and Other Diseases” (The University of Buea, priority 2019, published 2022).
